# Source: a melting point compilation (Tetko et al.; mined from patent text by program, amines drawn as free bases though some values may be those of a salt)
row,Structure (SMILES),melting point
1,CCCCCN(C(=O)Nc1ccc2c(c1)C(C)(C)CCC2(C)C)c1ccc(C(=O)O)cc1,201 to 202 °C
2,CCCc1c(-c2cc(=O)c3c(O)c(CCC)c(OCC4=COC(C)(C)O4)cc3o2)ccc(OC)c1O,148 °C
3,NC(=O)N(O)Cc1cccc(OCCc2csc(-c3ccc(C(F)(F)F)cc3)n2)c1,118 to 120 °C
4,COc1cccc2c1S(=O)(=O)NC(C1CCCCC1)N2 (configuration not stated),221 to 223 °C
5,CCCCCCC(C(=O)OCC)S(=O)(=O)c1ccc(C)cc1 (configuration not stated),111 to 123 °C
6,Cn1ccc2cc(N3Cc4ccc(OC(F)F)cc4C3=O)ccc21,180 to 182 °C
7,CC1(C)COc2ccc(C(=O)Nc3ccc(C(=O)O)cc3)cc2OC1,249 to 251 °C
8,CC(C)(C)OC(=O)NC1CCc2ccccc2NC1=O (configuration not stated),199 to 201 °C
9,CC(C)(CO)COc1ccc(-n2cc(C(=O)O)cn2)cc1C#N,188 to 190 °C
10,CNN(NC)C(=O)Nc1cccc2c1C(=O)c1c-2n[nH]c1-c1cc(C)sc1C,252 °C
11,CC(=O)Nc1ccc(S(=O)(=O)Nc2nncs2)cc1,214 to 215 °C
12,Cc1sc2c(c1CCN1CCC(c3noc4cc(F)ccc34)CC1)CCN(C(=O)c1ccccc1)C2,192 to 195 °C
13,Cc1cccc(-c2[nH]c(C(C)C)nc2-c2cccc(-c3ccc(NS(=O)(=O)C4CC4)cn3)c2)n1,133 to 136 °C
14,Cn1c(=O)oc2cc(NCCCc3ccccc3)ccc21,97 to 98 °C
15,OCc1ccc(-c2cccc(C(F)(F)F)c2)o1,45 °C
16,Cc1cccc(-c2nc3ccc(Cl)cn3c2-c2ccnc(-c3ccc(CN4CCCC4)cc3)c2)n1,134 °C
17,COc1cc(Nc2nc3cccc(-c4ccc(S(=O)(=O)N5CCOCC5)cc4)c3o2)cc(OC)c1OC,201 to 203 °C
18,CCOC(=O)c1cnc2c(c(C)nn2-c2ccccc2)c1N(Cc1ccccc1)S(=O)(=O)c1ccc(OC)cc1,164 to 166 °C
19,CCOC(=O)CC(O)Cc1ccc([N+](=O)[O-])cc1 (configuration not stated),71 to 72 °C
20,COc1ccc(C2=NN(c3ccccn3)C(=O)CC2)cc1,> 300 °C
21,CCC12CCC3C4CCC(=O)C=C4CCC3C1CCC2C(C)=O (configuration not stated),138 to 142 °C
22,COc1ccc(/C(C#N)=C/c2ccc(OC)c(OC3CCCC3)c2)cc1OC,101 to 103 °C
23,O=C(Nc1ccccc1)c1cccc(Oc2cccc(C(F)(F)F)c2)n1,92 to 93 °C

row,Structure (SMILES),melting point
1,O=C(O)COc1ccc(-c2c(Cl)c(CN3C(=O)CCC3=O)nc3sc4c(c23)CCS(=O)(=O)C4)cc1,260 to 261 °C
2,CCc1noc(-c2cn(-c3cccc(OCCc4ccccc4)c3)cn2)n1,124 to 125 °C
3,COc1ccc(-c2ccc3cnc(Nc4ccc(N5CCN(C)CC5)cc4OC)nn23)cn1,170 to 173 °C
4,COC1=CC(=O)c2c(cc(Br)c(O)c2Br)C1=O,224 to 228 °C
5,CC(C(=O)O)c1ccc2oc(Cc3ccc(F)cc3)nc2c1 (configuration not stated),91 to 93 °C
6,Fc1cc(Cc2cccs2)c(Cl)cc1Cl,60 to 61 °C
7,Cc1nc(N2CCN(CC3CC3(F)F)C2=O)sc1C(=O)NCc1ncco1 (configuration not stated),156 to 158 °C
8,CCC1CC(=O)NN=C1c1ccc2nc(-c3ccncc3)[nH]c2c1 (configuration not stated),299 to 302 °C
9,NC(=S)Nc1cc2ccccc2cn1,225 to 227 °C
10,CCCCC1(O)CCC2C3CCC4=CC(=O)CC(C)C4(C)C3CCC21C (configuration not stated),85 °C
11,CN(C)C(=O)C(C)(C)n1ccc(-c2ccccc2)n1,99.5 to 102 °C
12,COc1ccc(S(=O)(=O)n2ccc3ccnc(-c4ccc(O)cc4)c32)cc1,179 to 182 °C
13,COc1cc(CO[Si](C(C)C)(C(C)C)C(C)C)ccc1OCc1nc(-c2cccc(-c3nnn[nH]3)c2)oc1C,152 to 153 °C
14,Cc1cccc2c1N(CC(=O)N1CC3CCC(CC3)C1)C(=O)C(NC(=O)Nc1cccc(O)c1)N=C2c1ccccc1F (configuration not stated),193 to 204 °C
15,C=CCNC(=S)Nc1cc(=N)n2c(n1)SCCC2,196 to 197 °C
16,N#Cc1nn(-c2c(Cl)cc(C(F)(F)F)cc2Cl)cc1C1(C(F)(F)C(F)(F)C(F)(F)F)CC1,95 to 96 °C
17,CCCc1c(OCCCOc2cccc3c2CCCC3)ccc2c1OC(CCC(O)CO)(CCC(O)CO)CC2=O (configuration not stated),113 to 115 °C
18,COc1cccc(NN=C(Sc2ccc(Cl)cc2)C(C)=O)c1,107 to 108 °C
19,CCOC(=O)CC(C)(O)c1ccc(-c2ccc(F)cc2F)cc1 (configuration not stated),96 to 97 °C
20,CCOC(=O)CC(O)CP(=O)(OCC)OCC (configuration not stated),33 to 35 °C
21,Cc1cnc2c(S(=O)(=O)Cl)cccc2c1,158 to 159 °C
22,CC(C)(C)OC(=O)C(ON1CCNC1=Nc1c(Cl)cccc1Cl)c1ccccc1 (configuration not stated),88 to 90 °C
23,CN1c2ccccc2-c2nc3ccc(Cl)cc3c3cc(OS(=O)(=O)C(F)(F)F)cc1c23,193 to 195 °C

row,Structure (SMILES),melting point
1,Cc1nc(N)c2c(=O)n(C)c(=O)n(C)c2n1,267 °C
2,N#CN(c1ccccc1)c1nc(N(C#N)c2ccccc2)nc(N(c2ccccc2)c2ccccc2)n1,280 to 284 °C
3,COc1cc(C2c3cc4c(cc3C(NC3=CC(=O)N(Cc5ccc(F)cc5)C3=O)C3COC(=O)C23)OCO4)cc(OC)c1O[Si](C)(C)C(C)(C)C (configuration not stated),182 to 184 °C
4,COC(=O)c1cncc(NC(=O)C(C)CS)c1 (configuration not stated),96 to 97 °C
5,CC(=O)NC[C@H]1CN(c2ccc(-c3ncno3)c(F)c2)C(=O)O1,199 to 200 °C
6,CN1CCN(C2Cc3ccccc3Sc3cc(F)c(Cl)cc32)CC1 (configuration not stated),105 to 107 °C
7,CC(=O)Nc1c(C(=O)c2cccs2)[nH]c2cc(Cl)ccc12,228 to 231 °C
8,N#CCCNC(=O)c1cccc(-c2ccc3c(c2)N(c2cc(Cl)ccc2Cl)CC3)c1,189 to 190 °C
9,O=S(CCCCCCOc1ccc(C2=C(c3ccccc3)CCCc3cc(O)ccc32)cc1)Cc1ccccn1 (configuration not stated),80 °C
10,Cc1c(C(=O)Nc2ccc(N3CCC(N4CCSCC4)CC3)c(C#N)c2)cnn1-c1ccc(Cl)cc1,256 °C
11,N#Cc1cc(F)cc(-c2ccc3c(c2)C2(CCCC2)C(=O)N3)c1,235 to 237 °C
12,O=S(=O)(c1ccccc1)n1c2ccc(Br)cc2c2cc(Cl)cnc21,242 °C
13,Cc1c(CC2CCc3cc4ccccc4n3C2=O)ncn1Cc1ccccc1 (configuration not stated),130 to 140 °C
14,Clc1ccc2c(CCN3CCN(c4cccc5c4OCCO5)CC3)c[nH]c2c1,215 to 216 °C
15,CCON=C(CC)C1=C(O)CC(c2cc3c(cc2[N+](=O)[O-])OCO3)CC1=O (configuration not stated),122 °C
16,CN1CCc2c(N3CCCC3)c(F)c(N)c3c(=O)c(C(=O)O)cn1c23,> 290 °C
17,O=C(O)CCc1cn(Cc2ccc3cc(OCc4ccccc4F)ccc3c2)cc1-c1ccccc1,143 to 144 °C
18,CCCCCCC(O)CCCCCCCCCCCOCC(O)CNCCO (configuration not stated),71.8 to 72.5 °C
19,CNC(=O)c1sc(C(C)(C)C)cc1NC(=O)Nc1ccc(C)cc1,202 to 204 °C
20,CCOC1CC(c2ccccc2)Oc2c1ccc1c2nc(C)n1C (configuration not stated),177 to 178 °C
21,Nc1cc(-c2c(-c3ccc(Cl)cc3)nc3cccnn23)ccn1,252 to 253 °C
